Test results from patent US20230131427A1, “FUNGICIDAL COMPOSITIONS” (SYNGENTA CROP PROTECTION AG, priority 2020, published 2023).
Several values for one entry are separate records, joined by “and”; a condition that tells them apart may be missing. Equal values may be shown once. Read-outs that look alike come from different tables or passages of the source.

Key:
Septoria glycines = experiment: Example B2: mixtures, preventative activity against Septoria glycines (brown spot), liquid culture; assay type: cell-based; details: Septoria glycines, component A alone
Method in brief: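 Conidia from fresh culture mixed into potato dextrose broth and added to test compounds in DMSO in 96-well plates. Growth inhibition scored 100-0 (100 = no growth; 0 = well covered by mycelium); synergy of mixtures judged by Colby expected-action (O-E).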

Septoria tritici = experiment: Example B3: mixtures, preventative activity against Septoria tritici (leaf blotch), liquid culture; assay type: cell-based; details: component A alone; for inhibition at 0.00625 ppm / inhibition at 0.03 ppm / inhibition at 0.003125 ppm: Zymoseptoria tritici; for inhibition at 0.03 ppm: read-out: Activity (%) A
Method in brief: (§1)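 Fungal conidia mixed into potato dextrose broth were added to test compounds or mixtures in DMSO in microtiter wells. Fungicidal activity was scored on a 100-0 scale (100 = no disease growth; 0 = well fully covered by mycelium). Synergy was assessed by the Colby formula, comparing observed (O) with expected (E) action.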

[1] = system: Puccinia recondita f. sp. tritici; experiment: Puccinia recondita f. sp. tritici / wheat / leaf disc preventative (brown rust); assay type: in vivo; details: foliar, vs untreated control
Experimental: (§2) Leaf disks or leaf segments of various plant species are cut from plants grown in a greenhouse. The cut leaf disks or segments are placed in multiwell plates (24-well format) onto water agar. The leaf disks are sprayed with a test solution before (preventative) or after (curative) inoculation. Compounds to be tested are prepared as DMSO solutions (max. 10 mg/mL) which are diluted to the appropriate concentration with 0.025% Tween20 just before spraying. The inoculated leaf disks or segments are incubated under defined conditions (temperature, relative humidity, light, etc.) according to the respective test system. A single evaluation of disease level is carried out 3 to 14 days after inoculation, depending on the pathosystem. Percent disease control relative to the untreated check leaf disks or segments is then calculated.
Wheat leaf segments cv. Kanzler are placed on agar in multiwell plates (24-well format) and sprayed with the formulated test compound diluted in water. The leaf disks are inoculated with a spore suspension of the fungus 1 day after application. The inoculated leaf segments are incubated at 19° C. and 75% rh under a light regime of 12 h light/12 h darkness in a climate cabinet and the activity of a compound is assessed as percent disease control compared to untreated when an appropriate level of disease damage appears in untreated check leaf segments (7-9 days after application).

Phakopsora pachyrhizi [2] = experiment: Example B5: preventative activity against Phakopsora pachyrhizi (soybean rust), whole soybean plants sprayed, leaf disks inoculated; assay type: in vivo
Method in brief: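 Soybean plants sprayed 4 weeks after planting at rates in g a.i./ha; leaf disks from the first trifoliate cut 1 day later and inoculated with rust, five repetitions per rate. Scored 11–14 days post-inoculation relative to untreated infested check (100 = no disease, 0 = heavy infestation).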

Phakopsora pachyrhizi [3] = experiment: Phakopsora pachyrhizi / soybean / leaf disc preventative (Asian soybean rust); assay type: in vivo; details: foliar, 288 h, vs untreated control
Experimental: as §2
Soybean leaf disks are placed on agar in multiwell plates (24-well format) and sprayed with test solutions. After drying, the leaf disks are inoculated with a spore suspension of the fungus. After appropriate incubation the activity of a compound is assessed approx.12 dpi (days after inoculation) as preventive fungicidal activity.

[4] = system: Glomerella lagenarium (Colletotrichum lagenarium); experiment: Glomerella lagenarium (Colletotrichum lagenarium) liquid culture / cucumber / preventative (anthracnose); assay type: cell-based; details: Colletotrichum orbiculare, vs untreated control
Experimental: Mycelia fragments or conidia suspensions of a fungus prepared either freshly from liquid cultures of the fungus or from cryogenic storage, are directly mixed into nutrient broth. DMSO solutions of the test compound (max. 10 mg/mL) are diluted with 0.025% Tween20 by a factor of 50 and 10 μl of this solution is pipetted into a microtiter plate (96-well format). The nutrient broth containing the fungal spores/mycelia fragments is then added to give an end concentration of the tested compound. The test plates are incubated in the dark at 24° C. and 96% relative humidity. The inhibition of fungal growth is determined photometrically after 2 to 7 days, depending on the pathosystem, and percent antifungal activity relative to the untreated check is calculated.
Conidia of the fungus from cryogenic storage are directly mixed into nutrient broth (PDB potato dextrose broth). After placing a (DMSO) solution of test compound into a microtiter plate (96-well format), the nutrient broth containing the fungal spores is added.

[5] = system: Mycosphaerella arachidis syn. Cercospora arachidicola; experiment: Example B4: mixtures, preventative activity against Mycosphaerella arachidis syn. Cercospora arachidicola (brown leaf spot of peanut), liquid culture; assay type: cell-based; details: Mycosphaerella arachidis, component A alone
Source text: This occurs whenever the action of an active ingredient combination is greater than the sum of the actions of the individual components. The action to be expected E for a given active ingredient combination obeys the so-called COLBY formula and can be calculated as follows (COLBY, S. R. “Calculating synergistic and antagonistic responses of herbicide combination”. Weeds, Vol. 15, pages 20-22; 1967):
If the action actually observed (O) is greater than the expected action (E), then the action of the combination is super-additive, i.e. there is a synergistic effect. In mathematical terms, synergism corresponds to a positive value for the difference of (O-E). In the case of purely complementary addition of activities (expected activity), said difference (O-E) is zero. A negative value of said difference (O-E) signals a loss of activity compared to the expected activity.
Conidia of the fungus from cryogenic storage were directly mixed into nutrient broth (PDB potato dextrose broth). A DMSO solution of the test compounds was placed into a microtiter plate (96-well format) and the nutrient broth containing the fungal spores was added to it.
Cercospora arachidicola (Brown leaf spot of peanut). Fungicidal activity was evaluated on a 100-0 scale (100=no disease growth; 0=well completely covered by mycelium).

[6] = system: Glomerella lagenarium syn. Colletotrichum lagenarium; experiment: Example B1: mixtures, preventative activity against Glomerella lagenarium syn. Colletotrichum lagenarium, liquid culture; assay type: cell-based; details: Colletotrichum orbiculare; component A alone, 0.03 ppm
Method in brief: as §1

[7] = system: Puccinia recondita f. sp. tritici; experiment: Puccinia recondita f. sp. tritici / wheat / leaf disc curative (brown rust); assay type: in vivo; details: foliar, vs untreated control
Experimental: Leaf disks or leaf segments of various plant species are cut from plants grown in a greenhouse. The cut leaf disks or segments are placed in multiwell plates (24-well format) onto water agar. The leaf disks are sprayed with a test solution before (preventative) or after (curative) inoculation. […] The inoculated leaf disks or segments are incubated under defined conditions (temperature, relative humidity, light, etc.) according to the respective test system. […] Percent disease control relative to the untreated check leaf disks or segments is then calculated. Wheat leaf segments cv. Kanzler are placed on agar in multiwell plates (24-well format). The leaf segments are inoculated with a spore suspension of the fungus. […] The formulated test compound diluted in water is applied 1 day after inoculation.

[8] = Phakopsora pachyrhizi, foliar, applied alone, 9 g/ha, read-out: Observed Activity (% of untreated) against Phakopsora pachyrhizi

Row | SMILES | inhibition at 0.003125 ppm (Septoria glycines; 100-0 scale) | inhibition at 0.00625 ppm (Septoria glycines; 100-0 scale) | inhibition at 0.00625 ppm (Septoria tritici; 0.00625 ppm, 100-0 scale) | pest or weed control at 200 ppm [1] | inhibition at 9 g/ha (Phakopsora pachyrhizi [2]; [8]) | Observed Activity (% of untreated) against Phakopsora pachyrhizi (Phakopsora pachyrhizi [2]; applied alone, 2.25 g/ha) | Observed Activity (% of untreated) against Phakopsora pachyrhizi (Phakopsora pachyrhizi [2]; applied alone, 4.5 g/ha) | melting point | pest or weed control at 67 ppm (Phakopsora pachyrhizi [3]) | inhibition of growth at 6.7 ppm [4] | inhibition at 0.003125 ppm [5] | inhibition at 0.00625 ppm [5] | inhibition at 0.03 ppm [6] | pest or weed control at 200 ppm [7] | other results
1 | CO/C=C(\Oc1cc(-n2ccc(C(C)C)n2)ccc1C)C(=O)OC [X.06, methyl (Z)-2-[5-(3-isopropylpyrazol-1-yl)-2-methyl-phenoxy]-3-methoxy-prop-2-enoate] | 0% | 50% | 50% | ≥ 80% | 97% | 13% and 9% | 61% and 48% and 73% | 88 to 91 °C | ≥ 80% | ≥ 80% | 20% | 50% | 20% | ≥ 80% | inhibition at 0.025 ppm (Septoria glycines; 0.025 ppm, 100-0 scale): 90%; inhibition at 0.03 ppm (Septoria tritici; 100-0 scale): 70%; Activity (%) A (Septoria tritici; 0.003125 ppm, 100-0 scale): 0%; inhibition at 2.25 g/ha (Phakopsora pachyrhizi [2]; Phakopsora pachyrhizi, foliar, applied alone, 2.25 g/ha, read-out: Observed Activity (% of untreated) against Phakopsora pachyrhizi): 10%; inhibition at 18 g/ha (Phakopsora pachyrhizi [2]; Phakopsora pachyrhizi, foliar, applied alone, 18 g/ha, read-out: Observed Activity (% of untreated) against Phakopsora pachyrhizi): 97%; Observed Activity (%) (% of untreated) against Phakopsora pachyrhizi (Phakopsora pachyrhizi [2]; applied alone, 2.25 g/ha): 71%; Observed Activity (%) (% of untreated) against Phakopsora pachyrhizi (Phakopsora pachyrhizi [2]; applied alone, 4.5 g/ha): 94%; Observed Activity (% of untreated) against Phakopsora pachyrhizi (Phakopsora pachyrhizi [2]; applied alone, 9 g/ha): 81% and 93%
2 | CCCc1ccn(-c2ccc(C)c(O/C(=C\OC)C(=O)OC)c2)n1 [X.01, methyl (Z)-3-methoxy-2-[2-methyl-5-(3-propylpyrazol-1-yl)phenoxy]prop-2-enoate] | – | – | 50% | ≥ 80% | 85% | 24% and 31% | 69% and 64% | 91 to 94 °C | ≥ 80% | ≥ 80% | 0% | 20% | 70% | ≥ 80% | inhibition at 0.003125 ppm (Septoria glycines): 20%; inhibition at 0.00625 ppm (Septoria glycines): 70%; inhibition at 0.003125 ppm (Septoria tritici; 0.003125 ppm, 100-0 scale): 20%; Activity (%) A (Septoria tritici; 0.00625 ppm, 100-0 scale): 70%; inhibition at 9 g/ha (Phakopsora pachyrhizi [2]; Phakopsora pachyrhizi, foliar, active ingredient alone, 9 g/ha, read-out: Observed Activity (%) (% of untreated)): 78%; inhibition at 18 g/ha (Phakopsora pachyrhizi [2]; Phakopsora pachyrhizi, foliar, active ingredient alone, 18 g/ha, read-out: Observed Activity (%) (% of untreated)): 85%; Observed Activity (%) (% of untreated) (Phakopsora pachyrhizi [2]; active ingredient alone, 4.5 g/ha): 61% and 87% and 82% and 69%; Observed Activity (%) (% of untreated) (Phakopsora pachyrhizi [2]; active ingredient alone, 9 g/ha): 94% and 90%; Observed Activity (%) (% of untreated) (Phakopsora pachyrhizi [2]; active ingredient alone, 18 g/ha): 97%
3 | CO/C=C(\Oc1cc(-n2ncc(C(F)(F)F)n2)ccc1C)C(=O)OC [X.10, methyl (Z)-3-methoxy-2-[2-methyl-5-[4-(trifluoromethyl)triazol-2-yl]phenoxy]prop-2-enoate] | 70% | 90% | – | ≥ 80% | – | – | – | 107 to 109 °C | ≥ 80% | ≥ 80% | 70% | 90% | 0% | ≥ 80% | inhibition at 0.03 ppm (Septoria glycines; 0.03 ppm, 100-0 scale, read-out: Activity (%) A): 0%; inhibition at 0.003125 ppm (Septoria tritici; 72 h, 0.003125 ppm): 70%; inhibition at 0.00625 ppm (Septoria tritici; 72 h, 0.00625 ppm): 90%; inhibition at 0.03 ppm (Septoria tritici; 72 h, 72 hrs): 0%; inhibition at 0.03 ppm ([5]; 0.03 ppm): 0%
